According to ChEMBL document CHEMBL3507680, “University of Dundee, Gates Library screen for HepG2 cell viability”:

Experiment: Human HepG2 cell viability assay in 384 well format
Type: toxicity, cell-based
Parameters: dose 125 nL, time 70.5 hour; concentration not given beside the values
Details: HepG2 cells, read-out: Inhibition

Going from `CN(C)C(=O)c1nc2c(s1)CCN(C(=O)c1ccc(Cl)cc1)CC2` to `CCN(C)c1ncnc2c1CCN(C(=O)c1ccno1)CC2`, the cytotoxicity at 70.5 h falls from -2.44% to -7.5%.

Going from `O=C(c1cscn1)N1C[C@@H]2[C@@H](C1)OCC(=O)N2CC1CCCC1` to `CN1C(=O)CO[C@H]2CCN(C(=O)Cc3ccc4c(c3)CCCC4)CC[C@@H]21`, the cytotoxicity at 70.5 h rises from -6.35% to -4.91%.

Going from `COCCC(=O)N1CCN(CCN(C)C)c2ncccc2C1` to `CC(C)N(C)Cc1cn2c(n1)CN(C(=O)Cc1ccsc1)CC2`, the cytotoxicity at 70.5 h rises from -6.14% to 0.0105%.

Going from `Cc1csc([C@@H]2C[C@@H]3CCN(Cc4cnn(C)c4)C[C@H]3O2)n1` to `Cc1nc(CO[C@@H]2CN(Cc3cnn(C)c3)[C@@H]3COC[C@@H]32)cs1`, the cytotoxicity at 70.5 h rises from -8.46% to 5.43%.

First: CN(C)C(=O)COCc1cncc2c1CCN(Cc1nccn1C)C2
Second: CN(C)C(=O)CO[C@H]1CN(Cc2ccc(F)cc2)[C@@H]2CCCO[C@H]12
The cytotoxicity at 70.5 h of the first is higher: -7.66% for the first, -9.38% for the second.

Compared with `c1ccc(O[C@H]2CC[C@H]3[C@H]2OCCN3Cc2nccs2)nc1`, `c1csc(CN2CCO[C@H]3[C@H](OCCN4CCCC4)CC[C@@H]32)n1` is lower in cytotoxicity at 70.5 h: -9.23% for the first, -11.1% for the second.

Compared with `O=C(CCO)N1CCOC2(CCCN(C(=O)c3ccco3)C2)C1` (configuration not stated), `Cc1ccc(CN2CCOC3(CCCN(C(=O)c4ccco4)C3)C2)s1` (configuration not stated) is lower in cytotoxicity at 70.5 h: -7.04% for the first, -10.7% for the second.

Compared with `COCC(=O)N1CC[C@@H]2CN(Cc3cccc(Cl)c3)S(=O)(=O)[C@@H]2CC1`, `COCC(=O)N1CCC(c2nc3ccc(-c4ccccc4)cn3n2)CC1` is lower in cytotoxicity at 70.5 h: 24.3% for the first, -7.3% for the second.

First: COCCN1CCC2(CCN(Cc3nccs3)CC2)C1=O
Second: CN(C)C(=O)CN1CCC2(CCN(Cc3nccs3)CC2)C1=O
The cytotoxicity at 70.5 h of the first is lower: -8.69% for the first, 16.1% for the second.

First: Cc1noc(C)c1CN1CC2(CCN(C(=O)c3c[nH]cn3)C2)CC1=O (configuration not stated)
Second: Cc1occc1C(=O)N1CCOCC2(CCN(Cc3nccs3)C2)C1 (configuration not stated)
The cytotoxicity at 70.5 h of the first is lower: -11.1% for the first, -6.13% for the second.

Compared with `Cc1occc1C(=O)N1CCC2(CC1)CC(c1cccnc1)C(=O)N2C` (configuration not stated), `Cc1oncc1C(=O)N1CCC2(CC1)CC(c1ccccc1)C(=O)N2C` (configuration not stated) is lower in cytotoxicity at 70.5 h: -17.4% for the first, -19% for the second.

Compared with `O=C(c1ccncn1)N1CCO[C@H]2[C@@H](OCc3cccnc3)CC[C@@H]21`, `Cc1cc(C(=O)N2CC[C@H](OCC3CC3)[C@@H]2Cc2cccnc2)no1` is higher in cytotoxicity at 70.5 h: -9.05% for the first, -4.43% for the second.

Going from `CCOCC1CN(C(=O)N(C)C)Cc2nn(C)cc21` (configuration not stated) to `CCn1cc2c(n1)CN(C(=O)c1ccncc1)CC2COCC1CC1` (configuration not stated), the cytotoxicity at 70.5 h falls from -5.53% to -25.7%.

Going from `CN(Cc1ccco1)C[C@H]1OC[C@@H]2CCN(Cc3nccs3)C[C@@H]21` to `CCOc1ccc(CN2CCC(c3ccn[nH]3)C2)cc1CO` (configuration not stated), the cytotoxicity at 70.5 h rises from -10.1% to 3.78%.

Going from `Cc1cnc(N2CCC3(CCCN(c4ccc(C)nn4)C3)C2)nc1` (configuration not stated) to `COCC1CC2(CCN(Cc3cnn(C)c3)CC2)CN1c1ncccn1` (configuration not stated), the cytotoxicity at 70.5 h falls from 14.4% to -10.8%.

Compared with `Cc1ccnn1CCC(=O)N1CCCC2(C1)NC(=O)c1ccccc1O2` (configuration not stated), `COc1ccc2c(c1)C(=O)NC1(CC2)CCN(Cc2ccccn2)C1` (configuration not stated) is higher in cytotoxicity at 70.5 h: -2.25% for the first, -1% for the second.

Going from `Cc1c(CN2CCCC(n3c(=O)oc4ccccc43)C2)cnn1C` (configuration not stated) to `Cn1cc(CN2CCCC(n3c(=O)oc4ccccc43)C2)cn1` (configuration not stated), the cytotoxicity at 70.5 h falls from 17.2% to -0.583%.

Going from `COc1nc2cc(C)ccc2cc1CN(C)Cc1n[nH]c2c1CCCC2` to `Cc1ccc2[nH]c(C3CCN(C)CC3)nc2c1`, the cytotoxicity at 70.5 h rises from 2.69% to 12.7%.

First: COCC(=O)N1CCC(c2cc3nc(C)cc(C(F)(F)F)n3n2)CC1
Second: Cc1cc(C(F)(F)F)n2nc(C3CCCN3C3CCSCC3)cc2n1 (configuration not stated)
The cytotoxicity at 70.5 h of the first is higher: 25.3% for the first, -2.47% for the second.

First: CCN(CC)S(=O)(=O)c1cc2c3c(c1)c(C)cc(=O)n3CCC2
Second: CC(C)N1C(=O)CO[C@H]2CCN(C(=O)c3ccc4c(c3)CCC4)CC[C@@H]21
The cytotoxicity at 70.5 h of the first is higher: 36% for the first, -3.57% for the second.

Going from `CC(C)N1CCCCC1c1cncc(Cl)n1` (configuration not stated) to `CC(C)N1CCC(Cn2cc(C(N)=O)cn2)CC1`, the cytotoxicity at 70.5 h falls from 17.6% to 11.9%.

First: CNc1cc(C)nc(C2COCCN2CCc2ccc(F)cc2)n1 (configuration not stated)
Second: COc1ccc(CN2C[C@@H](OCc3csc(C)n3)[C@H]3COC[C@H]32)cc1
The cytotoxicity at 70.5 h of the first is lower: -4.38% for the first, -3.55% for the second.

Compared with `O=C(CCc1ccccc1F)NC1CCCN(c2ccccn2)C1` (configuration not stated), `CS(=O)(=O)NCC(=O)NC1CCCN(c2ccccn2)C1` (configuration not stated) is lower in cytotoxicity at 70.5 h: -5.74% for the first, -9.78% for the second.

Compared with `Cc1oc2c(c1C(=O)N1C[C@H](O)[C@]3(CCCO3)C1)CCCC2`, `Cc1occc1C(=O)N1CCCC2(CCN(CCN3CCCC3)C2=O)C1` (configuration not stated) is lower in cytotoxicity at 70.5 h: -3.22% for the first, -11.9% for the second.

First: CN(CC1CCOCC1)C1CCCN(c2ccccn2)C1 (configuration not stated)
Second: CN(C1CCCN(c2ccccn2)C1)S(=O)(=O)N1CCOCC1 (configuration not stated)
The cytotoxicity at 70.5 h of the first is lower: -7.08% for the first, -2.35% for the second.

Compared with `COc1ccc2c(c1)C(=O)NC1(CC2)CCN(Cc2ccc(F)cc2)C1` (configuration not stated), `COc1ccc(CN2CCc3ncnc(C4CCOC4)c3CC2)cc1` (configuration not stated) is higher in cytotoxicity at 70.5 h: 5.75% for the first, 13.2% for the second.

Compared with `CC(C)N1CCOC(c2cc(CCO)[nH]n2)C1` (configuration not stated), `Cc1cc(C)nc(Nc2cc(C)nc(C3CCN(C(C)C)C3)n2)n1` (configuration not stated) is lower in cytotoxicity at 70.5 h: -1.76% for the first, -5.15% for the second.

Going from `C[C@@]1(O)CCN(C2CCOCC2)C[C@H]1n1ccc(=O)[nH]c1=O` to `O=C1CN(C(=O)C2CN(c3cccc(F)c3)CCO2)CCN1` (configuration not stated), the cytotoxicity at 70.5 h falls from -3.9% to -5.92%.

Compared with `CC(C)n1nnc(CC(=O)NCC2(c3ccccc3F)CCCC2)n1`, `CNC(=O)c1sc2ccccc2c1CC1CCCCN1Cc1ncc[nH]1` (configuration not stated) is higher in cytotoxicity at 70.5 h: -10.2% for the first, -7.25% for the second.

Going from `Cc1ncsc1-c1nnc(C2CCCN2C(=O)CCn2cccn2)o1` (configuration not stated) to `Cc1nc(CN2C(=O)COC3(CCN(Cc4ccco4)CC3)C2C)cs1` (configuration not stated), the cytotoxicity at 70.5 h rises from -9.26% to -1.55%.

Going from `CSCC[C@@H]1CN2CCC[C@H]2CN1Cc1coc2ccc(Cl)cc2c1=O` to `O=C1[C@H]2CN(Cc3ccoc3)C[C@H]2CN1Cc1ccncc1`, the cytotoxicity at 70.5 h rises from -5.47% to -1.61%.

First: CCCN1CCCC(O)(c2nc(C)c(COc3ccccc3)s2)CC1 (configuration not stated)
Second: Cc1ccc(CN2CC(C(=O)Nc3ccccc3)C3(CCOCC3)C2)s1 (configuration not stated)
The cytotoxicity at 70.5 h of the first is higher: 13.4% for the first, -13.1% for the second.

Compared with `CS(=O)(=O)N1CCCC(Cc2cnc(Br)cn2)C1` (configuration not stated), `CS(=O)(=O)c1ccc(-c2cnc(C3CCCN3)cn2)cc1` (configuration not stated) is lower in cytotoxicity at 70.5 h: 22.6% for the first, -11.3% for the second.

Compared with `CNc1cc(C(=O)N2CCOC(C(=O)NC3CCCC3)C2)ccn1` (configuration not stated), `Cn1cc(C(=O)N[C@@H]2CN(Cc3cccs3)[C@@H]3CCCO[C@@H]32)cn1` is lower in cytotoxicity at 70.5 h: -2.84% for the first, -14.7% for the second.

First: Cn1cc([C@@H]2CN(S(=O)(=O)c3cccnc3)C[C@H]2N)c2ccncc21
Second: O=C1[C@H]2CN(Cc3cccs3)C[C@H]2CN1c1cncnc1
The cytotoxicity at 70.5 h of the first is higher: 24% for the first, -6.91% for the second.

Compared with `COc1ccccc1C(=O)N1CCNCC1C(N)=O` (configuration not stated), `COc1cccc2[nH]c(C(=O)N3CCNCC3C(N)=O)cc12` (configuration not stated) is higher in cytotoxicity at 70.5 h: -2.25% for the first, 10.8% for the second.

First: Nc1ccc(-c2cnc(C3CCCN3)cn2)cn1 (configuration not stated)
Second: Cc1nc(-c2ccccc2)cc(C2CCNCC2)n1
The cytotoxicity at 70.5 h of the first is lower: -8.2% for the first, 7.58% for the second.

First: COCC1CN(Cc2ccc(C)o2)Cc2nnn(CC3CC3)c21 (configuration not stated)
Second: COCCN1CCOCC2(CCCN(Cc3ccc(C)o3)C2)C1 (configuration not stated)
The cytotoxicity at 70.5 h of the first is lower: -5.7% for the first, 7.21% for the second.

In the case of `c1cncc(COCc2nnc3n2CCN(Cc2ccsc2)C3)c1`, the cytotoxicity at 70.5 h is reported as -2.47%.
